Results taken from patent publication US8946302B2, “Selective sigma-1 receptor ligands” (Wisconsin Alumni Research Foundation, priority 2008, dated 2015).
Several values for one entry are separate records, joined by “and”; a condition that tells them apart may be missing. Equal entries are not always repeated. Where two headings read alike, the source gives them in different places.

Legend:
[1] = target: T1, σ-1 Sites (Cavia porcellus, UniProt Q60492); assay: σ-1 sites radioligand binding, guinea pig liver membranes (Table 2); details: for Ki: guinea pig liver membranes; for σ-1 selectivity σ-2 Ki/σ-1 Ki: σ-2 rat liver / σ-1 guinea pig liver membranes
T1 construct: from tissue
T1 sequence (Q60492 whole entry): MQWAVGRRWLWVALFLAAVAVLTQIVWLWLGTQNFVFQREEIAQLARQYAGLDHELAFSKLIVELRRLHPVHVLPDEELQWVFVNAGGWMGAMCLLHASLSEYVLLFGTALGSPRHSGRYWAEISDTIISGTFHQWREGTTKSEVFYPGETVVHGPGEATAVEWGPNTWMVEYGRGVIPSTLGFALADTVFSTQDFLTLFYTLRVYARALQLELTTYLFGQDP
Method: (§2) Assays for sigma-1 were performed using 10 nM (+)-[^3H]pentazocine in guinea pig liver homogenates (25 μg/well) incubated at 30° C. for 1 hour with several concentrations of competing ligands. After incubation, membranes were harvested on a 0.5% PEI-treated Whatman GF/B filters using a Brandel Cell Harvester. (+)-[^3H]pentazocine binding was determined by liquid scintillation counting. […] Serial concentrations of the compounds evaluated were added to the reactions for 45 minutes at 30° C. and the samples vacuum filtered through 0.5% polyethyleneimine (PEI) treated Whatman GF/B as described above to measure displacement of the radioligands from the sigma receptor subtypes.

[2] = target: T2, σ-2 Sites (Rattus norvegicus, UniProt Q5U3Y7); assay: σ-2 sites radioligand binding, rat liver membranes (Table 2)
T2 construct: from tissue
T2 sequence (Q5U3Y7 1-176): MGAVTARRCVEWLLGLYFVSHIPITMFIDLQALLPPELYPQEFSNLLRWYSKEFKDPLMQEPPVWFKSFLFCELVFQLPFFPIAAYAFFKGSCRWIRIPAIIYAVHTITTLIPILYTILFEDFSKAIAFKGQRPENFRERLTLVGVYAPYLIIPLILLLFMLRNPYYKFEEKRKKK
Method: as §2

[3] = target: T3, purified sigma-1 receptor (Cavia porcellus, UniProt Q60492); assay: Competitive displacement of [3H]-(+)-pentazocine at the pure sigma-1 receptor; type: binding, guinea pig; details: read-out: Ki Pure σ-1R
T3 construct: made in house; host or cells: E. coli BL21 DE3
T3 sequence (Q60492 whole entry): as the sequence (Q60492 whole entry) above
Method: A guinea pig sigma-1 receptor was purified as previously described (Ramachandran et al., Protein Expr. Purif., 2007. 51(2): 283-92). The pMal P2X plasmid (New England Biolabs) encoding the guinea pig sigma-1 receptor on the C-terminus of the E. coli Maltose Binding Protein was used for purification. The sigma-1 receptor on its C-terminus carried a hexa-histadine epitope tag. Protein was expressed in the E. coli strain BL21 DE3 (Novagen) with 0.6 mM IPTG. The E. coli pellet was sonicated and centrifuged at 100,000 g for 1 hour to separate the particulate and soluble fractions. The particulate fraction was extracted with Triton X-100, centrifuged and the extract was loaded onto an amylose resin (New England Biolabs, E-802). After washing the resin with buffer containing 0.5% Triton X-100, the MBP-sigma-1 receptor fusion protein was eluted with buffer containing 10 mM maltose.
The MBP-sigma-1-receptor fusion protein was cleaved with Factor Xa protease (Novagen) at room temperature for 24-48 hours and the cleavage was monitored with SDS-polyacrylamide gel electrophoresis. The sigma-1 receptor from the Factor Xa cleavage was purified with a HIS-Select HC Nickel affinity gel (Sigma-Aldrich P6611) in a batch format. The resin was washed with buffer containing 0.5% Triton X-100 detergent and the beads were separated by a brief centrifugation at 4000 rpm in a microcentrifuge. After washing to remove MBP, the pure sigma-1 receptor was eluted in buffer containing 250 mM imidazole.
To remove the undigested MBP-sigma-1 receptor fusion protein that is carried over in the Ni^2+ purification, the eluate from the Ni^2+ purification was incubated with Anti-MBP antibody conjugated to agarose (Vector Laboratories, Burlingame, Calif.) at 4° C. for 18-24 hours. The beads were separated by centrifugation and the supernatant contained the pure sigma-1 receptor.
Competition ligand binding to the pure sigma-1 receptor was performed as previously described. […] After incubation at 30° C. for 60 minutes, the reaction was terminated by rapid filtration through glass fiber filters (Whatman GF/B), using a Brandel cell harvester (Brandel, Gaithersburg, Md.). The glass fiber filters were pre-soaked in 0.5% polyethyleneimine (PEI) for at least 1 hour at room temperature (˜23° C.). Filters were washed 4 times with 4 mL of ice-cold 50 mM Tris-C1, pH 8.0. Radioactivity was quantified by liquid scintillation counting using a Packard model 1600 CA scintillation counter.

[4] = target: T4, sigma-2 receptor (Rattus norvegicus, UniProt Q5U3Y7); assay: Sigma-2 competitive binding, [3H]-DTG with (+)-pentazocine, rat liver membranes (Example 6); design: from tissue; host or cells: rat liver membranes
T4 sequence (Q5U3Y7 1-176): T2 sequence (Q5U3Y7 1-176)

[5] = target: T5, sigma-1 receptor (Cavia porcellus, UniProt Q60492); assay: Sigma-1 competitive binding, (+)-[3H]pentazocine, guinea pig liver membranes (Example 6); design: from tissue; host or cells: guinea pig liver membranes;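 further: compounds tested over serial concentrations, 45 min incubation at 30 °C with membrane preparations, read-out is displacement of bound radioligand from the receptor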
T5 sequence (Q60492 whole entry): as the sequence (Q60492 whole entry) above
Method: Minced frozen rat livers or guinea pig livers (65 g) were thawed in 100 mL homogenization buffer (10 mM phosphate buffer pH 7.4 containing 0.32M sucrose, 1 M MgSO4, 0.5 M EGTA, 1 mM phenylmethylsulphonyl fluoride (PMSF), 10 μg/mlleupeptin, 1 μg/ml pepstatin A, 10 μg/ml p-toluenesulfonyl-L-arginine methyl ester (TAME) and then homogenized on ice with a Brinkman polytron homogenizer (setting 6, 4 bursts of 10 second each) followed by a glass homogenizer (Teflon pestle by 6 slow passes at 3,000 rpm). The homogenized tissues were then centrifuged at 17,000 g for 10 minutes. The supernatants were re-centrifuged at 100,000 g for 1 hour. The microsomal pellets were resuspended in homogenization buffer, snap frozen with dry ice-ethanol, and stored at −80° C. at a final protein concentration of 20 mg/mL.
as §2

[6] = target: T5, sigma-1 receptor; assay: Affinity for the sigma-1 receptor (Table 3); type: binding; design: from tissue
[7] = tested on: SKOV-3; assay: Cytotoxicity assay SKOV-3; type: cell-based; details: Homo sapiens, SK-OV-3, HU Ovarian, read-out: IC50 (SE) growth inhibition
Method: (§1) Multi-plex cytotoxicity assays were performed by the Keck-UWCCC Small Molecule Screening Facility (Madison, Wis.). Specific methodology can be found online at http://hts.wisc.edu/Resources.htm#mpa.

[8] = tested on: tumor cell lines; assay: Cytotoxicity assays, various tumor cell lines (statements in words); type: cell-based, human
Method: Because sigma-1 receptors are overexpressed in numerous tumor cell lines, which include breast cancer, lung carcinoma, renal carcinoma, colon carcinoma, sarcoma, brain tumors, melanoma, glioblastoma, neuroblastoma, and prostate cancer, the ability of the compounds to inhibit the growth of various tumor cell lines were tested.
as §1

[9] = tested on: MCF7; assay: Cytotoxicity assay MCF7; type: cell-based; details: Homo sapiens, HU Breast, read-out: IC50 (SE) growth inhibition
Method: as §1

[10] = tested on: SF268; assay: Cytotoxicity assay SF268; type: cell-based; details: Homo sapiens, SF-268, HU CNS, read-out: IC50 (SE) growth inhibition
Method: as §1

[11] = tested on: Du145; assay: Cytotoxicity assay Du145; type: cell-based; details: Homo sapiens, DU-145, HU Prostate, read-out: IC50 (SE) growth inhibition
Method: as §1

[12] = tested on: HT-29; assay: Cytotoxicity assay HT-29; type: cell-based; details: Homo sapiens, HU Colorectal, read-out: IC50 (SE) growth inhibition
Method: as §1

[13] = tested on: A549; assay: Cytotoxicity assay A549; type: cell-based; details: Homo sapiens, HU lung, read-out: IC50 (SE) growth inhibition
Method: as §1

[14] = tested on: MB-MDA-231; assay: Cytotoxicity assay MB-MDA-231; type: cell-based; details: Homo sapiens, HU Breast, read-out: IC50 (SE) growth inhibition
Method: as §1

[15] = tested on: MCP10A; assay: Cytotoxicity assay MCP10A; type: cell-based; details: Homo sapiens, HU Breast, read-out: IC50 (SE) growth inhibition
Method: as §1

[16] = tested on: HI299; assay: Cytotoxicity assay HI299; type: cell-based; details: Homo sapiens, HU Lung, read-out: IC50 (SE) growth inhibition
Method: as §1

[17] = tested on: NCI-H460; assay: Cytotoxicity assay NCI-H460; type: cell-based; details: Homo sapiens, HU lung, read-out: IC50 (SE) growth inhibition
Method: as §1

[18] = tested on: HCT-45; assay: Cytotoxicity assay HCT-45; type: cell-based; details: Homo sapiens, HU Colorectal, read-out: IC50 (SE) growth inhibition
Method: as §1

[19] = rat liver membranes, n = 3, read-out: Sigma2 KD values
[20] = guinea pig liver membranes, n = 3, read-out: Sigma 1 KD values

CCCCCCCCCCCCCCCCCCNCCCc1ccc([N+](=O)[O-])cc1 [Compound 1h, N-(3-(4-Nitrophenyl)propyl)octadecan-1-amine]
Ki [1]: 26.9 µM | σ-1 selectivity σ-2 Ki/σ-1 Ki [1]: 0.3 | Ki [2]: 8.83 µM | Ki ([3]; [3H]-(+)-pentazocine): 0.0415 µM

CCCCCCCCCCCCCCCCCCNCCCc1ccccc1 [Compound 1g, N-(3-Phenylpropyl)octadecan-1-amine]
Ki [1]: 34.4 µM | σ-1 selectivity σ-2 Ki/σ-1 Ki [1]: 0.7 | Ki [2]: 19.9 µM | Ki ([3]; [3H]-(+)-pentazocine): 0.0422 µM

CCCNCCc1ccc(F)cc1 [Compound 9]
Kd [4]: 0.23 µM | Kd [5]: 0.091 µM | Ratio (σ2/σ1) [5]: 2.53

CCCCCCCCCCCCNCCCc1ccccc1 [UC3]
Kd ([6]; read-out: Sigma-1 KD): 0.092 µM

CCCC[N+](CCCC)(CCCC)CCCC [Compound 3]
Kd [4]: 268 µM | Kd [5]: 54.7 µM | Ratio (σ2/σ1) [5]: 4.90

CCCCN(CCCC)CCCc1ccc([N+](=O)[O-])cc1 [Compound 11, N,N-Dibutyl-3-(4-nitrohenyl)propylamine]
Kd [4, 19]: 0.404 µM | IC50 [7]: 27.9 µM | cytotoxicity / tumor cell growth inhibition [8]: robustly inhibits growth in MB-MDA231, MCF7, Du145, and NCI-H460 cell lines in addition to SKOV-3 cells | IC50 [9]: 22.4 µM | IC50 [10]: > 100 µM | IC50 [11]: 32.7 µM | Ratio (σ2/σ1) [5]: 1347 | Kd [5, 20]: 0.0003 µM | IC50 [12]: > 100 µM | IC50 [13]: > 100 µM | IC50 [14]: 57.1 µM | IC50 [15]: > 100 µM | IC50 [16]: > 100 µM | IC50 [17]: 40.5 µM | IC50 [18]: > 100 µM

CCCCCCCCCCCCCCCCCCN [Stearylamine]
Ki ([3]; [3H]-(+)-pentazocine 10 nM): 8.5 µM and 8 µM

CN(C)CCc1c[nH]c2ccccc12 [Compound 1]
Kd [5, 20]: > 50000 µM

CCCCCCCNCCCc1ccc([N+](=O)[O-])cc1 [Compound 1d, N-(3-(4-Nitrophenyl)propyl)heptane-1-amine]
Ki [1]: 0.01 µM | σ-1 selectivity σ-2 Ki/σ-1 Ki [1]: 1 | cytotoxicity / tumor cell growth inhibition [8]: remarkable activity for inhibiting tumor growth | Ki [2]: 0.011 µM | Ki ([3]; [3H]-(+)-pentazocine): 0.0075 ± 0.0012 µM | Kd ([6]; read-out: Sigma-1 KD): 0.0057 µM

CCCNCCc1ccc(F)cc1 [HD7]
Kd [6]: 0.091 µM

CCCCCCCCCCCCCCCCN [Hexadecylamine]
Ki ([3]; [3H]-(+)-pentazocine 10 nM): 2.7 µM and 3 µM

CCCCCCN [Hexylamine]
Ki ([3]; [3H]-(+)-pentazocine 10 nM): 37.5 µM and 37 µM

CCCN(CCCc1ccc(F)cc1)Cc1ccc(N=[N+]=[N-])c(I)c1 [Compound 15]
Ratio (σ2/σ1) [5]: 570.8 ^

CCCCCCCCN [Octylamine]
Ki ([3]; [3H]-(+)-pentazocine 10 nM): 5.6 µM and 6 µM

CCCCN(CCCC)CCCc1ccc(F)cc1 [Compound 10, N,N-Dibutyl-3-(4-fluorophenyl)propylamine]
Kd [4, 19]: 0.685 µM | IC50 [7]: 56.2 µM | IC50 [9]: > 100 µM | IC50 [10]: > 100 µM | IC50 [11]: > 100 µM | Ratio (σ2/σ1) [5]: 38.7 | Kd [5, 20]: 0.0177 µM | IC50 [12]: > 100 µM | IC50 [13]: > 100 µM | IC50 [14]: > 100 µM | IC50 [15]: > 100 µM | IC50 [16]: > 100 µM | IC50 [17]: > 100 µM | IC50 [18]: > 100 µM

CCCCN(CCCC)CCCC [Compound 6]
Kd [4, 19]: 44.8 µM | Ratio (σ2/σ1) [5]: 6.41 | Kd [5, 20]: 7 µM
